{"source": "patent US7897397B2", "about": "“Cell fusion promoter and utilization of the same” (Kowa Company, Ltd., priority 2004, dated 2011)", "system": "myocardial cell/bone marrow cell co-culture system", "experiment": "Cell fusion in myocardial cell/bone marrow cell co-culture, fused cells (MF20- and EGFP-positive) counted by flow cytometry", "format": "cell-based, rat", "text": "From a 1- to 2-day-old Wistar-Kyoto rat, the heart was removed, and myocardial cells were isolated therefrom and cultured. Bone marrow mononuclear cells separated from the bone marrow of an EGFP (enhanced green fluorescent protein) transgenic rat were introduced into the myocardial cells, followed by co-culture thereof.\nFlow cytometry was used to quantitatively determine the number of these fused cells. The cells were fixed with paraformaldehyde in the same manner as above, then fluorescence-immunostained in a suspended state with primary antibody MF20, a biotin-conjugated anti-mouse antibody as secondary antibody and a streptavidin/PerCP-cye5.5 conjugate as tertiary antibody, and analyzed by flow cytometry. 50,000 cells were analyzed for each analysis. […] The cells in the gate R4 in FIG. 2 (D) were confirmed to be fused cells positive to both MF20 and EGFP.\nThen, according to a similar manner to that described above, ATP was added at a concentration of 0 mM (control), 1 mM, 2 mM and 3 mM respectively to the myocardial cell/bone marrow cell co-culture system, and the number of fused cells was examined. Each group at the predetermined concentration of ATP was stained in the same manner as in FIG. 2 and analyzed by flow cytometry. The results are shown in the graphs in FIGS. 3A-D.\nThe result is shown in the graph in FIG. 4. In FIG. 4, the ratio (%) of the number of fused cells to the total number of cells is shown on the ordinate, and the concentration of ATP (0 mM, 1 mM, 2 mM and 3 mM) is shown on the abscissa. The asterisk (*) in FIG. 4 indicates significance (p<0.05) relative to the control group. As a result, it was confirmed that only about 0.1% fused cells were formed in the control group in the absence of ATP, while about 0.5% fused cells that are about 5-times as much as in the control group were formed in the group to which 1 or 2 mM ATP had been added.\nAccording to the method of Minamino et al. (Minamino T., Gaussin V., DeMayo F. J., et al., Circ. Res. 2001; 88:587-592), the heart was removed from a 1- to 2-day-old Wistar-Kyoto rat and myocardial cells were isolated. […]\nThen, the number of the fused cells was quantitatively determined by flow cytometry. After 1 week of co-culture, the cells were treated with trypsin and fixed with paraformaldehyde in the same manner as above, fluorescence-immunostained in a suspended state with primary antibody MF20 (labeled with PerCP-cye5.5 and captured as being positive to FL-3), biotin-conjugated anti-mouse Ig's antibody (BD Pharmingen) as secondary antibody, and streptavidin/PerCP-cye5.5 conjugate (BD Pharmingen) as tertiary antibody, and analyzed by flow cytometry. 50,000 cells were analyzed for each analysis. […]"}
{"smiles": "Nc1ncnc2c1ncn2[C@@H]1O[C@H](COP(=O)(O)OP(=O)(O)OP(=O)(O)O)[C@@H](O)[C@H]1O", "note": "[ATP, adenosine 5′-triphosphate]", "values": [{"measurement": "number of the fused cells compared with the control group (in words)", "setting": "1 mM or 2 mM ATP added, flow cytometry, 50,000 cells analyzed", "result": "higher than in the control group"}, {"measurement": "fused cells relative to the control group (times as much)", "setting": "1 or 2 mM ATP added vs control in the absence of ATP", "result": "about 5 times"}, {"measurement": "ratio (%) of the number of fused cells to the total number of cells", "setting": "1 or 2 mM ATP added, 1 week of co-culture, control without ATP about 0.1%", "result": "about 0.5%"}, {"measurement": "ratio of the number of fused cells as compared with the control group (in words)", "setting": "1 or 2 mM ATP added, p<0.05 relative to the control group", "result": "increased significantly"}]}
